Patent US20240382483A1, “HETEROCYCLIC EGFR INHIBITORS FOR USE IN THE TREATMENT OF CANCER” (Blueprint Medicines Corporation, priority 2021, published 2024)

What was measured:
EGFR (L858R T790M C797S) = target: T1, EGFR (L858R T790M C797S) (Homo sapiens, UniProt P00533, C797S/L858R/T790M); test: Biochemical EGFR inhibition assay (Caliper mobility shift), EGFR LRTMCS; details: LRTMCS (PH) IC50 (nM) @ 1 mM ATP (Num), EGFR LRTMCS mutant
T1 construct: purchased SignalChem E10-122VG
Procedure: Reactions proceeded until between 10% to 20% total peptides were phosphorylated at room temperature (25° C.) and were terminated with 35 mM 2,2′,2″,2′″-(ethane-1,2-diyldinitrilo)tetraacetic acid (EDTA). Product was detected using the Caliper mobility shift detection method where the phosphorylated peptide (product) and substrate were electrophoretically separated and measured. Percent activity was plotted against log concentration of compound and points to generate an apparent IC50.

[1] = target: T2, intracellular phosphorylation of EGFR in NCI-H1975 cell line that harbors the EGFR L858R T790M mutations (Homo sapiens, UniProt P00533, L858R/T790M); test: NCI-H1975 pEGFR AlphaLISA assay; assay type: cell-based; details: NCI-H1975 cells (EGFR L858R T790M), p-EGFR (Tyr1068), 4-5 hours incubation; read-out: Ext pEGFR H1975 GMean IC50 (nM) Protocol: @Pharmaron AlphaLISA (Num)
T2 construct: NCI-H1975 cell line that harbors the EGFR L858R T790M mutations (ATCC, CRL-5908); host or cells: NCI-H1975
T2 sequence (P00533 25-1210 T790M/L858R): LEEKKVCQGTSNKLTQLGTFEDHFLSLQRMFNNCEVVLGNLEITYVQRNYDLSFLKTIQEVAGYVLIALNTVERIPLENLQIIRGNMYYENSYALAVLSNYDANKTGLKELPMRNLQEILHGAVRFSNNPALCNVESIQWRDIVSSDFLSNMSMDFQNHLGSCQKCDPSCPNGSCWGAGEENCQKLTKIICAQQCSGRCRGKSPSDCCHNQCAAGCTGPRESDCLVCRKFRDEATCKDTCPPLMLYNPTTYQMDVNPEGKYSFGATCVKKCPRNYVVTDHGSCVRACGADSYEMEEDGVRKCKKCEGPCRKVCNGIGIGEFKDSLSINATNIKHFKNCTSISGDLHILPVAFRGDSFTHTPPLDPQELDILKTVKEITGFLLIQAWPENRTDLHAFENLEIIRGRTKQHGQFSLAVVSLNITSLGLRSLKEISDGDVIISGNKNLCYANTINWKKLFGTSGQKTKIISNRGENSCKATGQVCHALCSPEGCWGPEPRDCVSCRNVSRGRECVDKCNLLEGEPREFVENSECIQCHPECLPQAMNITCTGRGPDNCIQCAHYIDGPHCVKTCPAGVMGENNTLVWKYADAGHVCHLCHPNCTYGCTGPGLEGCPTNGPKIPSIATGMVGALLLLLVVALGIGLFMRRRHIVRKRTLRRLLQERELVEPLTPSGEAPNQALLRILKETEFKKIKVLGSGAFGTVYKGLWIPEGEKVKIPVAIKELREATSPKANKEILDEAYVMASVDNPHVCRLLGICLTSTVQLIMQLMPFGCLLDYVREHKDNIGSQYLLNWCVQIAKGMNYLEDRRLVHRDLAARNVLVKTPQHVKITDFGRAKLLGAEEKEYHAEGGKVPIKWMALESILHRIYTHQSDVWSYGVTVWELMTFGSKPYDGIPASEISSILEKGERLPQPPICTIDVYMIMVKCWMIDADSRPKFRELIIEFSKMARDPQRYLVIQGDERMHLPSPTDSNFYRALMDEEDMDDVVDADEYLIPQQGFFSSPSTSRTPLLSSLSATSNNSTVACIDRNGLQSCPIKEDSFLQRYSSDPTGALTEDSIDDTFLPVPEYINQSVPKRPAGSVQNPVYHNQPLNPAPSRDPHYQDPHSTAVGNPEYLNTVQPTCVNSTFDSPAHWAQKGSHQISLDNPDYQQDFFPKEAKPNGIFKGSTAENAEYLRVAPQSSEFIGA
Procedure: On the next day, the test compounds and DMSO control were added into H1975 cell plate followed by incubation at 37C/5% CO2 for 4-5 hours. […] Then 5 μL of a donor bead mix was added to each well followed by overnight incubation at room temperature in dark. On the next day, the plate was read at a compatible plate reader to obtain pEGFR signal. Percent of pEGFR inhibition was plotted against log concentration of compounds to generate IC50 values.

T1 sequence (P00533 25-1210 T790M/C797S/L858R): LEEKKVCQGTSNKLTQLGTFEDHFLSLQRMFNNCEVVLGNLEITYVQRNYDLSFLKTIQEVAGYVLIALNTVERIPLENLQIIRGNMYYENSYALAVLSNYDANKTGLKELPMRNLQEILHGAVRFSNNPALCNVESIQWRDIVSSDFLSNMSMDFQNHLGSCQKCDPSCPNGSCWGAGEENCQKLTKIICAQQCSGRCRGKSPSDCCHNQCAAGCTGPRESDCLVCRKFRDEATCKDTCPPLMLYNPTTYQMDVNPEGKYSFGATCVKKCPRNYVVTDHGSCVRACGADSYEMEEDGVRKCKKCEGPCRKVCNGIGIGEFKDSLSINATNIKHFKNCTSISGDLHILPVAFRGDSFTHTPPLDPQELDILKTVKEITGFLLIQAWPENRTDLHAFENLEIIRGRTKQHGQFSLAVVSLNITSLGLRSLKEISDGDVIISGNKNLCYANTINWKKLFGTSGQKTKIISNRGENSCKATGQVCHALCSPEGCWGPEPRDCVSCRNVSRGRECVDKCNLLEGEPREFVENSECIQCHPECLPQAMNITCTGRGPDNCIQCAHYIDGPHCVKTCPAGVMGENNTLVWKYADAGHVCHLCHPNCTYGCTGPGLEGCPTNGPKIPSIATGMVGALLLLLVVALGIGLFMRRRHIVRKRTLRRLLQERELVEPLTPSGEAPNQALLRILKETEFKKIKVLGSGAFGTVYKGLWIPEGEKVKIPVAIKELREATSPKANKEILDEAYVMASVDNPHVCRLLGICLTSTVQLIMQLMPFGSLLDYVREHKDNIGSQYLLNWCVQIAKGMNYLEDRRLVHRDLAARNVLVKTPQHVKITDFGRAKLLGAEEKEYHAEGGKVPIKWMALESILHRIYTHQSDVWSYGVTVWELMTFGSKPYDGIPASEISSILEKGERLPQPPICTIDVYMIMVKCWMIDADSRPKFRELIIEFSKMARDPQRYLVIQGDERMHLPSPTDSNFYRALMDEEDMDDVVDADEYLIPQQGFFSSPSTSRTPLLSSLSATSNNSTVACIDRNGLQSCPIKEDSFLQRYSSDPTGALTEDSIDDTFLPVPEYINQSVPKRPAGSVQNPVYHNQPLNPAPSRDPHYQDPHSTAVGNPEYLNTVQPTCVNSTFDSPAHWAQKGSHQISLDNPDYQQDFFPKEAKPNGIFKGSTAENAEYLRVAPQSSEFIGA

| Structure (SMILES) | IC50 (EGFR (L858R T790M C797S)) [nM] | IC50 [1] [nM] |
| --- | --- | --- |
| CO[C@@H]1CCN(c2nccc(Nc3cc4c(C(C)C)cnc(N5CC(F)C5)c4cn3)n2)C[C@@H]1O (single isomer, unassigned) [Example 118, (3S,4R)-1-(4-((8-(3-fluoroazetidin-1-yl)-5-isopropyl-2,7-naphthyridin-3-yl)amino)pyrimidin-2-yl)-4-methoxypiperidin-3-ol or (3R,4S)-1-(4-((8-(3-fluoroazetidin-1-yl)-5-isopropyl-2,7-naphthyridin-3-yl)amino)pyrimidin-2-yl)-4-methoxypiperidin-3-ol] | 20 to 30 | > 50 |
| CO[C@@H]1CCN(c2nccc(Nc3cc4c(C(C)C)ncc(N5C[C@H](O)[C@H]5C)c4cn3)n2)C[C@@H]1O (single isomer, unassigned) [Example 119, (3S,4R)-1-(4-((8-((2R,3S)-3-hydroxy-2-methylazetidin-1-yl)-5-isopropyl-2,6-naphthyridin-3-yl)amino)pyrimidin-2-yl)-4-methoxypiperidin-3-ol or (3R,4S)-1-(4-((8-((2R,3S)-3-hydroxy-2-methylazetidin-1-yl)-5-isopropyl-2,6-naphthyridin-3-yl)amino)pyrimidin-2-yl)-4-methoxypiperidin-3-ol] | 20 to 30 | > 50 |
| CO[C@@H]1CCN(c2nccc(Nc3cc4c(C(C)C)cnc(N5CC(C(=O)N(C)C)C5)c4cn3)n2)C[C@@H]1O (single isomer, unassigned) [Example 120, 1-(6-((2-((3S,4R)-3-hydroxy-4-methoxypiperidin-1-yl)pyrimidin-4-yl)amino)-4-isopropyl-2,7-naphthyridin-1-yl)-N,N-dimethylazetidine-3-carboxamide or 1-(6-((2-((3R,4S)-3-hydroxy-4-methoxypiperidin-1-yl)pyrimidin-4-yl)amino)-4-isopropyl-2,7-naphthyridin-1-yl)-N,N-dimethylazetidine-3-carboxamide] | 20 to 30 | 30 to 50 |
| CO[C@@H]1CCN(c2nccc(Nc3cc4c(C(C)C)ncc(N5CC(C(=O)N(C)C)C5)c4cn3)n2)C[C@@H]1O (single isomer, unassigned) [Example 121, 1-(7-((2-((3S,4R)-3-hydroxy-4-methoxypiperidin-1-yl)pyrimidin-4-yl)amino)-1-isopropyl-2,6-naphthyridin-4-yl)-N,N-dimethylazetidine-3-carboxamide or 1-(7-((2-((3R,4S)-3-hydroxy-4-methoxypiperidin-1-yl)pyrimidin-4-yl)amino)-1-isopropyl-2,6-naphthyridin-4-yl)-N,N-dimethylazetidine-3-carboxamide] | 30 to 100 | > 50 |
| CO[C@@H]1CCN(c2nccc(Nc3cc4c(C(C)C)ccc(N5C[C@H](O)[C@H]5C)c4cn3)n2)C[C@@H]1O (single isomer, unassigned) [Example 123, (3S,4R)-1-(4-((8-((2R,3S)-3-hydroxy-2-methylazetidin-1-yl)-5-isopropylisoquinolin-3-yl)amino)pyrimidin-2-yl)-4-methoxypiperidin-3-ol-ol or (3R,4S)-1-(4-((8-((2R,3S)-3-hydroxy-2-methylazetidin-1-yl)-5-isopropylisoquinolin-3-yl)amino)pyrimidin-2-yl)-4-methoxypiperidin-3-ol] | 15 to 20 | > 50 |
| CO[C@@H]1CCN(c2cc(Nc3cc4c(C(C)C)ccc(N5CC(n6ccnn6)C5)c4cn3)ccn2)C[C@@H]1O (single isomer, unassigned) [Example 126, (3S,4R)-1-(4-((8-(3-(1H-1,2,3-triazol-1-yl)azetidin-1-yl)-5-isopropylisoquinolin-3-yl)amino)pyridin-2-yl)-4-methoxypiperidin-3-ol or (3R,4S)-1-(4-((8-(3-(1H-1,2,3-triazol-1-yl)azetidin-1-yl)-5-isopropylisoquinolin-3-yl)amino)pyridin-2-yl)-4-methoxypiperidin-3-ol] | < 15 | 10 to 20 |
| CO[C@H]1CCN(c2cc(Nc3cc4c(C(C)C)ccc(N5CC(n6ccnn6)C5)c4cn3)ccn2)C[C@@H]1O (single isomer, unassigned) [Example 127, (3S,4S)-1-(4-((8-(3-(1H-1,2,3-triazol-1-yl)azetidin-1-yl)-5-isopropylisoquinolin-3-yl)amino)pyridin-2-yl)-4-methoxypiperidin-3-ol or (3R,4R)-1-(4-((8-(3-(1H-1,2,3-triazol-1-yl)azetidin-1-yl)-5-isopropylisoquinolin-3-yl)amino)pyridin-2-yl)-4-methoxypiperidin-3-ol] | 15 to 20 | 10 to 20 |
| CC(C)c1cnc(N2CC3(CCS3(=O)=O)C2)c2cnc(Nc3ccnc(N4C[C@@H](F)[C@@H](O)C(C)(C)C4)n3)cc12 (single isomer, unassigned) [Example 132, 6-(6-((2-((4S,5R)-5-fluoro-4-hydroxy-3,3-dimethylpiperidin-1-yl)pyrimidin-4-yl)amino)-4-isopropyl-2,7-naphthyridin-1-yl)-1-thia-6-azaspiro[3.3]heptane 1,1-dioxide or 6-(6-((2-((4R,5S)-5-fluoro-4-hydroxy-3,3-dimethylpiperidin-1-yl)pyrimidin-4-yl)amino)-4-isopropyl-2,7-naphthyridin-1-yl)-1-thia-6-azaspiro[3.3]heptane 1,1-dioxide] | < 15 | 10 to 20 |
| CC(C)c1cnc(N2C[C@H](O)[C@H]2C)c2cnc(Nc3ccnc(N4C[C@@H](F)[C@@H](O)[C@@](C)(F)C4)n3)cc12 (single isomer, unassigned) [Example 133, (3S,4R,5R)-3,5-difluoro-1-(4-((8-((2R,3S)-3-hydroxy-2-methylazetidin-1-yl)-5-isopropyl-2,7-naphthyridin-3-yl)amino)pyrimidin-2-yl)-3-methylpiperidin-4-ol or (3R,4S,5S)-3,5-difluoro-1-(4-((8-((2R,3S)-3-hydroxy-2-methylazetidin-1-yl)-5-isopropyl-2,7-naphthyridin-3-yl)amino)pyrimidin-2-yl)-3-methylpiperidin-4-ol] | < 15 | 10 to 20 |

The remaining lines, values ahead:

| IC50 (EGFR (L858R T790M C797S)) [nM] | IC50 [1] [nM] | Structure (SMILES) |
| --- | --- | --- |
| < 15 | 20 to 30 | CC(C)c1cnc(N2CC[C@H]2[C@@H](C)O)c2cnc(Nc3ccnc(N4CC[C@@H](O)[C@@](C)(F)C4)n3)cc12 (single isomer, unassigned) [Example 65, (3S,4R)-3-fluoro-1-(4-((8-((S)-2-((R)-1-hydroxyethyl)azetidin-1-yl)-5-isopropyl-2,7-naphthyridin-3-yl)amino)pyrimidin-2-yl)-3-methylpiperidin-4-ol or (3S,4R)-3-fluoro-1-(4-((8-((S)-2-((S)-1-hydroxyethyl)azetidin-1-yl)-5-isopropyl-2,7-naphthyridin-3-yl)amino)pyrimidin-2-yl)-3-methylpiperidin-4-ol] |
| < 15 | 10 to 20 | CO[C@@H]1CCN(c2nccc(Nc3cc4c(C(C)C)cnc(N5C[C@H](O)[C@H]5C)c4cn3)n2)C[C@@H]1O (single isomer, unassigned) [Example 122, (3S,4R)-1-(4-((8-((2R,3S)-3-hydroxy-2-methylazetidin-1-yl)-5-isopropyl-2,7-naphthyridin-3-yl)amino)pyrimidin-2-yl)-4-methoxypiperidin-3-ol or (3R,4S)-1-(4-((8-((2R,3S)-3-hydroxy-2-methylazetidin-1-yl)-5-isopropyl-2,7-naphthyridin-3-yl)amino)pyrimidin-2-yl)-4-methoxypiperidin-3-ol] |
| < 15 | 30 to 50 | CO[C@@H]1CCN(c2nccc(Nc3cc4c(C(C)C)cnc(N5CC6(CCS6(=O)=O)C5)c4cn3)n2)C[C@@H]1O (single isomer, unassigned) [Example 124, 6-(6-((2-((3S,4R)-3-hydroxy-4-methoxypiperidin-1-yl)pyrimidin-4-yl)amino)-4-isopropyl-2,7-naphthyridin-1-yl)-1-thia-6-azaspiro[3.3]heptane 1,1-dioxide or 6-(6-((2-((3R,4S)-3-hydroxy-4-methoxypiperidin-1-yl)pyrimidin-4-yl)amino)-4-isopropyl-2,7-naphthyridin-1-yl)-1-thia-6-azaspiro[3.3]heptane 1,1-dioxide] |
| < 15 | 30 to 50 | CO[C@@H]1CCN(c2nccc(Nc3cc4c(C(C)C)ccc(N5CC6(CCS6(=O)=O)C5)c4cn3)n2)C[C@@H]1O (single isomer, unassigned) [Example 125, 6-(3-((2-((3S,4R)-3-hydroxy-4-methoxypiperidin-1-yl)pyrimidin-4-yl)amino)-5-isopropylisoquinolin-8-yl)-1-thia-6-azaspiro[3.3]heptane 1,1-dioxide or 6-(3-((2-((3R,4S)-3-hydroxy-4-methoxypiperidin-1-yl)pyrimidin-4-yl)amino)-5-isopropylisoquinolin-8-yl)-1-thia-6-azaspiro[3.3]heptane 1,1-dioxide] |
